Reference: patent publication EP1120414A1, “DISUBSTITUTED MALEIMIDE COMPOUNDS AND MEDICINAL UTILIZATION THEREOF” (Japan Tobacco Inc., priority 1998, dated 2000)
pIC50: −log10 of the molar value.

Key:
PKC β II = molecular target: T1, PKC β II (Homo sapiens, UniProt P05771); assay: PKC enzyme assay (BIOTRAK Protein kinase C enzyme assay system, 32P-ATP phosphorylation of peptide […]); format: biochemical; conditions: for Ratio α/β: IC50 PKC α / IC50 PKC β II; for pIC50: Protein Kinase C, Human Recombinant, test substance 1 nM-10 µM, 37°C, 15 minutes, read-out: Inhibition of PKC activity IC50 PKC β II
T1 construct: purchased CALBIOCHEM
T1 sequence (P05771 other isoform, or with tags, fused parts or gaps): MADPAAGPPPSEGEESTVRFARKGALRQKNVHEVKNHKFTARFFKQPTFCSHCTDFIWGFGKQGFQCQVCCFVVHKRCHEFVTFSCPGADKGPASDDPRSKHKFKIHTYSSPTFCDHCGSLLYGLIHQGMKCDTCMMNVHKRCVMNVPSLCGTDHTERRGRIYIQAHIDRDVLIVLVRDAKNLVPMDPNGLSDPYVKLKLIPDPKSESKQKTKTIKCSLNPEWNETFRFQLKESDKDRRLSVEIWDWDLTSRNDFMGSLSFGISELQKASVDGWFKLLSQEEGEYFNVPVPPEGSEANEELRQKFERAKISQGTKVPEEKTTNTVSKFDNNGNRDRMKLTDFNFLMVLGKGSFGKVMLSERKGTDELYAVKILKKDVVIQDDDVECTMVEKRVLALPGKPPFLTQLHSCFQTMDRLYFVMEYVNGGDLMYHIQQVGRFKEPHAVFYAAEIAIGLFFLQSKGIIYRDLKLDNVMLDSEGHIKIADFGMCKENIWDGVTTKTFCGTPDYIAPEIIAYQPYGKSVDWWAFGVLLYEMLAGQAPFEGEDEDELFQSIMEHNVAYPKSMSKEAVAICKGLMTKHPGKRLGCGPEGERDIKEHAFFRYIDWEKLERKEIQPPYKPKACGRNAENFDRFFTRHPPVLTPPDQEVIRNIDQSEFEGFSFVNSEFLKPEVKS
Excerpt: The method for determining the PKC inhibitory activity of the compound of the present invention is explained in the following. Inasmuch as PKCβII is present in greater number in intravascular cells than PKCβI, PKCβII was mainly used here to test the enzyme activity.
(§1) As the reagent for enzyme assay, BIOTRAK Protein kinase C enzyme assay system (hereinafter the system, Amersham), and as the PKC enzyme standard product, Protein Kinase C, Human Recombinant (CALBIOCHEM) were purchased and used in the assay. A substrate mixture was prepared by mixing calcium buffer (12 mM calcium acetate, 50 mM Tris/HCl pH 7.5, 0.05% (w/v) sodium azide), Lipid (0.3 mg/ml La-phosphatidyl-L-serine, […] phorbol 12-myristate 13-acetate, 50 mM Tris/HCl pH 7.5, 0.05% (w/v) sodium azide), peptide buffer (900 µM peptide […]), 50 mM Tris/HCl pH 7.5, 0.05% (w/v) sodium azide), DTT buffer (30 mM dithiothreitol, 50 mM Tris/HCl pH 7.5, 0.05% (w/v) sodium azide), and magnesium ATP buffer (1.2 mM ATP, […] pH 7.4, 72 mM magnesium chloride) all attached to the system in a ratio of 1:1:1:1:0.8 and adding [ y -32P]ATP (Amersham, cat. […] The PKC enzyme standard product was diluted with an assay buffer (10 mM Hepes pH 7.4, 0.01% Triton X-100) to a concentration of 400 ng/ml and used as the enzyme solution. The substrate mixture and a test substance (diluted to the final concentration of 1 nM-10 µM with dimethyl sulfoxide (DMSO)) were mixed at a ratio of 20:1. The enzyme solution was added in the amount equivalent to the substrate mixture and mixed, which was followed by incubation at 37°C for 15 minutes. The reaction terminator (300 mM orthophosphoric acid containing carmosine red) attached to the system was added in the amount equivalent to the substrate mixture to end the reaction, and the reaction mixture was spotted on a phosphocellulose paper (Whatman, P-81), washed twice with 75 mM orthophosphoric acid and assayed for radioactivity by BAS2000 (Fuji film).
(§2) The ratio of the radioactivity of the addition of the test substance to the addition of DMSO was determined, and IC50 was calculated from inhibition at each concentration.

PKC α = molecular target: T2, PKC α (Homo sapiens, UniProt P17252); assay: as above; format: biochemical; conditions: Protein Kinase C, Human Recombinant; test substance 1 nM-10 µM; 37°C, 15 minutes; read-out: Inhibition of PKC activity IC50 PKC α
T2 construct: purchased CALBIOCHEM
Procedure: as §1, §2

Row | SMILES | Ratio α/β (PKC β II) | pIC50 (PKC β II) | pIC50 (PKC α)
1 | O=C1NC(=O)C(c2cn(CCCN3CCCC3)c3ccccc23)=C1Nc1ccccc1 [Example 2-22, 3-(phenylamino)-4-(1-(3-pyrrolidin-1-ylpropyl)-1H-indol-3-yl]-1H-pyrrole-2,5-dione] | 37 | 7.74 | 6.18
2 | NC(=O)C1CCCN1CCCn1cc(C2=C(Nc3ccccc3)C(=O)NC2=O)c2ccccc21 (centres unmarked) [Example 2-24, 3-[1-{3-(2-carbamoylpyrrolidin-1-yl)propyl}-1H-indol-3-yl]-4-(phenylamino)-1H-pyrrole-2,5-dione] | 42 | 7.18 | 5.56
3 | O=C1NC(=O)C(c2cn(CCCN3CCC(O)CC3)c3ccccc23)=C1Nc1ccccc1 [Example 2-25, 3-[1-{3-(4-hydroxypiperidino)propyl}-1H-indol-3-yl]-4-(phenylamino)-1H-pyrrole-2,5-dione] | 46 | 8.05 | 6.38
4 | CN1CCN(CCCn2cc(C3=C(Nc4ccccc4)C(=O)NC3=O)c3ccccc32)CC1 [Example 2-26, 3-[1-{3-(4-methylpiperazin-1-yl)propyl}-1H-indol-3-yl]-4-(phenylamino)-1H-pyrrole-2,5-dione] | – | 7.64 | 6.01
5 | O=C1NC(=O)C(c2cn(CCCCN3CCC(O)CC3)c3ccccc23)=C1Nc1cccc(Cl)c1 [Example 2-27, 3-[(3-chlorophenyl)amino]-4-[1-{4-(4-hydroxypiperidino)butyl}-1H-indol-3-yl]-1H-pyrrole-2,5-dione] | 37 | 7.59 | 6.01
6 | O=C1NC(=O)C(c2cn(CCCCCN3CCC(O)CC3)c3ccccc23)=C1Nc1ccccc1 [Example 2-28, 3-[1-{5-(4-hydroxypiperidino)pentyl}-1H-indol-3-yl]-4-(phenylamino)-1H-pyrrole-2,5-dione] | 43 | 7.60 | 5.97
7 | CN1CCN(CCCCn2cc(C3=C(Nc4ccccc4)C(=O)NC3=O)c3ccccc32)CC1 [Example 2-29, 3-[1-{4-(4-methylpiperazin-1-yl)butyl}-1H-indol-3-yl]-4-(phenylamino)-1H-pyrrole-2,5-dione] | 75 | 7.60 | 5.73
8 | O=C1NC(=O)C(c2cn(CCCN3CCC(N4CCCCC4)CC3)c3ccccc23)=C1Nc1ccccc1 [Example 2-31, 3-(phenylamino)-4-[1-{3-(4-piperidinopiperidino)propyl}-1H-indol-3-yl]-1H-pyrrole-2,5-dione] | 59 | 7.92 | 6.15
9 | O=C1NC(=O)C(c2cn(CCCN3CCN(CCO)CC3)c3ccccc23)=C1Nc1ccccc1 [Example 2-32, 3-[1-{3-[4-(2-hydroxyethyl)piperazin-1-yl]propyl}-1H-indol-3-yl]-4-(phenylamino)-1H-pyrrole-2,5-dione] | 57 | 7.72 | 5.97
10 | NC(=O)C1CCN(CCCn2cc(C3=C(Nc4ccccc4)C(=O)NC3=O)c3ccccc32)CC1 [Example 2-33, 3-[1-{3-(4-carbamoylpiperidino)propyl}-1H-indol-3-yl]-4-(phenylamino)-1H-pyrrole-2,5-dione] | 68 | 8.00 | 6.17
11 | CN(C)C1CCN(CCCn2cc(C3=C(Nc4ccccc4)C(=O)NC3=O)c3ccccc32)CC1 [Example 2-34, 3-[1-{3-(4-dimethylaminopiperidino)propyl}-1H-indol-3-yl]-4-(phenylamino)-1H-pyrrole-2,5-dione] | 57 | 7.82 | 6.07
12 | O=C1NC(=O)C(c2cn(CCCS(=O)(=O)c3ccccc3)c3ccccc23)=C1Nc1ccccc1 [Example 2-35, 3-[1-{3-(phenylsulfonyl)propyl}-1H-indol-3-yl]-4-(phenylamino)-1H-pyrrole-2,5-dione] | 41 | 7.02 | 5.41
